# Results from US10774064B2 (Cadent Therapeutics, Inc., priority 2016, dated 2020).
# Structures can show the parent of a compound that is named as a salt.
# Target: T1, small-conductance Ca2+-activated K+ channels (SK channels, subtype 2) (Homo sapiens, UniProt Q9H2S1)
# T1 construct: expressed in transfected cells; host or cells: HEK293
# Test: whole-cell patch-clamp of ionic current through SK2 channels in HEK293 cells (SC100)
# Type: cell-based
# Conditions: concentration that increases the basal current by 100%; HEK293 cells expressing SK2 channels
# Summary of the method: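 Whole-cell patch-clamp recording of current in HEK293 cells expressing SK2 channels. SC100 is the compound concentration that increases basal current by 100%.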
row,SC100,Structure (SMILES)
1,+ (+ means >1 uM),"Cc1cc(NC2CCC(F)(F)CC2)nc(-n2cc(F)cn2)n1 [Compound 196, N-(4,4-difluorocyclohexyl)-2-(4-fluoro-1H-pyrazol-1-yl)-6-methylpyrimidin-4-amine]"
2,+ (+ means >1 uM),"Cc1cc(C)n(-c2nc(NC3CCC(F)(F)CC3)cc([C@H]3COCC[C@H]3O)n2)n1 (relative stereo) [Compound 257, (−)-3-(6-((4,4-difluorocyclohexyl)amino)-2-(3,5-dimethyl-1H-pyrazol-1-yl)pyrimidin-4-yl)tetrahydro-2H-pyran-4-ol]"
3,+++ (+++ means <200 nM),"CC(C)(C)C(=O)N1CC(Oc2cc(NC3CCC(F)(F)CC3)nc(-c3nc(CF)cs3)n2)C1 [Compound 316, 1-(3-((6-((4,4-difluorocyclohexyl)amino)-2-(4-(fluoromethyl)thiazol-2-yl)pyrimidin-4-yl)oxy)azetidin-1-yl)-2,2-dimethylpropan-1-one]"
4,++ (++ means 200 nM-1000 nM),"Cc1cc(C)n(-c2nc(NC3CCC(F)(F)CC3)cc(C3=CCCOC3)n2)n1 [Compound 262, N-(4,4-difluorocyclohexyl)-6-(5,6-dihydro-2H-pyran-3-yl)-2-(3,5-dimethyl-1H-pyrazol-1-yl)pyrimidin-4-amine]"
5,++ (++ means 200 nM-1000 nM),"COc1cc(NC2CCC(F)(F)CC2)nc(-c2nc(C)cs2)n1 [Compound 361, N-(4,4-difluorocyclohexyl)-6-methoxy-2-(4-methylthiazol-2-yl)pyrimidin-4-amine]"
6,++ (++ means 200 nM-1000 nM),"O=C(N1CC(Oc2cc(NC3CCC(F)(F)CC3)nc(-c3nc(C(F)(F)F)cs3)n2)C1)C(F)(F)F [Compound 323, 1-(3-((6-((4,4-difluorocyclohexyl)amino)-2-(4-(trifluoromethyl)thiazol-2-yl)pyrimidin-4-yl)oxy)azetidin-1-yl)-2,2,2-trifluoroethan-1-one]"
7,+ (+ means >1 uM),"Cc1cc(NC2CCC(F)(F)CC2)nc(-n2nc(CO)cc2C)n1 [Compound 241, (1-(4-((4,4-difluorocyclohexyl)amino)-6-methylpyrimidin-2-yl)-5-methyl-1H-pyrazol-3-yl)methanol]"

# The next lines start with the compound.
row,Structure (SMILES),SC100
1,"CC(=O)N1CCN(c2cc(NC3CCC(C(F)(F)F)CC3)nc(-n3nc(C)cc3C)n2)CC1 (centres unmarked) [Compound 149, 1-(4-(2-(3,5-dimethyl-1H-pyrazol-1-yl)-6-((4-(trifluoromethyl)cyclohexyl)amino)pyrimidin-4-yl)piperazin-1-yl)ethan-1-one]",++ (++ means 200 nM-1000 nM)
2,"CC(=O)N1CCN(c2cc(N(C)C3CCC(F)(F)CC3)nc(-n3nc(C)cc3C)n2)CC1 [Compound 132, 1-(4-(6-((4,4-difluorocyclohexyl)(methyl)amino)-2-(3,5-dimethyl-1H-pyrazol-1-yl)pyrimidin-4-yl)piperazin-1-yl)ethan-1-one]",++ (++ means 200 nM-1000 nM)
3,"Cc1cc(C)n(-c2cc(NC(C)C(N)=O)nc(NC3CCC(F)(F)CC3)n2)n1 (centres unmarked) [Compound 107, 2-((2-((4,4-difluorocyclohexyl)amino)-6-(3,5-dimethyl-1H-pyrazol-1-yl)pyrimidin-4-yl)amino)propanamide]",+ (+ means >1 uM)
4,"COC(=O)N1CC(Oc2cc(NC3CCC(F)(F)CC3)nc(-n3ccc(C(F)F)n3)n2)C1 [Compound 295, methyl 3-((6-((4,4-difluorocyclohexyl)amino)-2-(3-(difluoromethyl)-1H-pyrazol-1-yl)pyrimidin-4-yl)oxy)azetidine-1-carboxylate]",++ (++ means 200 nM-1000 nM)
5,"CC(=O)N1CCN(c2cc(NC3CCC(F)(F)C3)nc(-n3nc(C)cc3C)n2)CC1 (centres unmarked) [Compound 130, 1-(4-(6-((3,3-difluorocyclopentyl)amino)-2-(3,5-dimethyl-1H-pyrazol-1-yl)pyrimidin-4-yl)piperazin-1-yl)ethan-1-one]",+ (+ means >1 uM)
6,"Cc1cc(NC2CCC(F)(F)CC2)nc(-n2ccc(C3CC3)n2)n1 [Compound 203, 2-(3-cyclopropyl-1H-pyrazol-1-yl)-N-(4,4-difluorocyclohexyl)-6-methylpyrimidin-4-amine]",++ (++ means 200 nM-1000 nM)
7,"Cc1cc(C)n(-c2cc(C(C)O)cc(NC3CCC(F)(F)CC3)n2)n1 (centres unmarked) [Compound 207, 1-(2-((4,4-difluorocyclohexyl)amino)-6-(3,5-dimethyl-1H-pyrazol-1-yl)pyridin-4-yl)ethan-1-ol]",+ (+ means >1 uM)

# Same assay, conditions: whole-cell patch-clamp, HEK293 cells expressing SK2 channels; concentration that increases the basal current by 100%
row,SC100 (μM),Structure (SMILES)
1,++ (++ means 200 nM-1000 nM),"FCc1csc(-c2nc(NC3CCC(F)(F)CC3)cc(N3CC4(COC4)C3)n2)n1 [NSSy5715, N-(4,4-difluorocyclohexyl)-2-(4-(fluoromethyl)thiazol-2-yl)-6-(2-oxa-6-azaspiro[3.3]heptan-6-yl)pyrimidin-4-amine]"
2,+ (+ means >1 uM),Cc1ccn(-c2cc(N3CCOCC3)nc(NC3CCC(F)(F)CC3)n2)n1 [NSSy6499]
3,+ (+ means >1 uM),Cc1csc(-c2nc(C#N)cc(NC3CCC(F)(F)CC3)n2)n1 [IN10880-029-P1]
4,+ (+ means >1 uM),"Cc1cc(NC2CCC(F)(F)CC2)nc(CO)n1 [IN11273-001-P1, (4-((4,4-difluorocyclohexyl)amino)-6-methylpyrimidin-2-yl) methanol]"
5,++ (++ means 200 nM-1000 nM),Cc1cc(-c2nc(C)cs2)nc(NC2CCC(F)(F)CC2)n1 [NSSy6590]
6,++ (++ means 200 nM-1000 nM),"Cc1csc(-c2nc(NC3CCC(F)(F)CC3)cc(OCC#N)n2)n1 [IN11196-007-P1, 2-((6-((4,4-difluorocyclohexyl)amino)-2-(4-methylthiazol-2-yl)pyrimidin-4-yl)oxy)acetonitrile]"
7,++ (++ means 200 nM-1000 nM),CC(=O)N(C)Cc1cc(NC2CCC(F)(F)CC2)nc(-c2nc(C)cs2)c1 [IN11133-068-P1]
8,++ (++ means 200 nM-1000 nM),Cc1csc(-c2nc(NC3CCC(F)(F)CC3)cc(N3CCN(C4COC4)CC3)n2)n1 [NSSy5792]
9,+++ (+++ means <200 nM),Cc1csc(-c2nc(NC3CCC(F)(F)CC3)cc(N3CCS(=O)(=O)CC3)n2)n1 [NSSy6062]
10,++ (++ means 200 nM-1000 nM),Cc1csc(-c2nc(NC3CCC(F)(F)CC3)cc(OCCNS(C)(=O)=O)n2)n1 [IN11059-052-P1]

# Further lines, the compound ahead of its results:
row,Structure (SMILES),SC100 (μM)
1,"Cc1ccn(-c2nc(NC3CCC(F)(F)CC3)cc(C(C)F)n2)n1 (centres unmarked) [IN10876-080-P1, N-(4,4-difluorocyclohexyl)-6-(1-fluoroethyl)-2-(3-methyl-1H-pyrazol-1-yl)pyrimidin-4-amine]",+ (+ means >1 uM)
2,COC(=O)N1CC(Oc2cc(NC3C4CC3C4)nc(-n3ccc(C)n3)n2)C1 (centres unmarked) [NSSy6127],+ (+ means >1 uM)
3,Cc1ccn(-c2cc(C#N)cc(NC3CCC(F)(F)CC3)n2)n1 [NSSy5826],++ (++ means 200 nM-1000 nM)
4,Cc1csc(-c2cc(OCc3cn(C)nn3)cc(NC3CCC(F)(F)CC3)n2)n1 [NSSy5680],+++ (+++ means <200 nM)
5,"Cc1ccn(-c2nc(N3CCOCC3)cc3c2CCN3)n1 [IN11063-092-P1, 4-(4-(3-methyl-1H-pyrazol-1-yl)-2,3-dihydro-1H-pyrrolo[3,2-c]pyridin-6-yl)morpholine hydrochloride]",+ (+ means >1 uM)
6,Cc1ccn(-c2cc(COC(=O)N(C)C)cc(NC3CCC(F)(F)CC3)n2)n1 [IN11039-006-P1],+++ (+++ means <200 nM)
7,Cc1cc(C)n(-c2cc(-n3nc(C)cc3C)nc(NC3CCC(F)(F)CC3)n2)n1 [NSSy6654],+ (+ means >1 uM)
8,"Cc1cc(C)n(-c2cc(C(O)Cc3cnn(C)n3)cc(NC3CCC(F)(F)CC3)n2)n1 (centres unmarked) [NSSy7053, 1-(2-((4,4-difluorocyclohexyl)amino)-6-(3,5-dimethyl-1H-pyrazol-1-yl)pyridin-4-yl)-2-(2-methyl-2H-1,2,3-triazol-4-yl) ethan-1-ol]",++ (++ means 200 nM-1000 nM)
9,COc1cc(NC2CCSCC2)nc(-c2nc(C)cs2)n1 [IN11079-072-P1],+ (+ means >1 uM)
10,Cc1ccn(-c2nc(NC3CCC(F)(F)CC3)cc(S(C)(=O)=O)[n+]2[O-])n1 [IN11059-071-P1],+ (+ means >1 uM)
11,COc1cc(NC2CC(F)(F)C2)nc(-c2nc(C)cs2)n1 [IN11133-014-P1],+ (+ means >1 uM)
12,"Cc1ccn(-c2cc(CN3CCCC3=O)cc(NC3CCC(F)(F)CC3)n2)n1 [NSSy6019, 1-((2-((4,4-difluorocyclohexyl)amino)-6-(3-methyl-1H-pyrazol-1-yl)pyridin-4-yl)methyl)pyrrolidin-2-one]",++ (++ means 200 nM-1000 nM)
13,"Cc1cc(NC2CCC(F)(F)CC2)nc(-c2cccc(C)n2)c1 [IN11137-041-P1, N-(4,4-difluorocyclohexyl)-4,6′-dimethyl-[2,2′-bipyridin]-6-amine]",+ (+ means >1 uM)
14,"Cc1csc(-c2nc(NC3CCCCC3(F)F)cc(C(C)F)n2)n1 (centres unmarked) [IN11140-089-P1, N-(2,2-difluorocyclohexyl)-6-(1-fluoroethyl)-2-(4-methylthiazol-2-yl)pyrimidin-4-amine]",+ (+ means >1 uM)
15,Cc1ccn(-c2nc(C#N)cc(NC3CCC(F)(F)CC3)n2)n1 [IN11288-025-P1],+ (+ means >1 uM)
16,Cc1ccn(-c2nc(NC3CCC(F)CC3)cc(N3CCOCC3)n2)n1 (centres unmarked) [NSSy5662],+ (+ means >1 uM)
17,COc1cc(C#N)cnc1OCc1cc(NC2CCC(F)(F)CC2)nc(-n2ccc(C)n2)c1 [IN11125-008-P1],+++ (+++ means <200 nM)
18,"Cc1ccn(-c2nc(NC3CCC(F)(F)CC3)cc(OC3CC(O)C3)n2)n1 (centres unmarked) [NSSy5879, 3-((6-((4,4-difluorocyclohexyl)amino)-2-(3-methyl-1H-pyrazol-1-yl)pyrimidin-4-yl)oxy)cyclobutan-1-ol]",++ (++ means 200 nM-1000 nM)
19,Cc1ccn(-c2nc(NC3CCC(O)CC3)cc(N3CCOCC3)n2)n1 (centres unmarked) [NSSy6486],+ (+ means >1 uM)
20,"Cc1csc(-c2cc(NC(=O)OC(C)(C)C)cc(NC3CCC(F)(F)CC3)n2)n1 [IN11083-048-P1, tert-butyl (2-((4,4-difluorocyclohexyl)amino)-6-(4-methylthiazol-2-yl)pyridin-4-yl) carbamate]",+++ (+++ means <200 nM)
